Experimental findings from article PMC9086992 (Chemmedchem, 2022) are described below.

Common to all, as to assay type: cell-based
Assay [1] has as its system RPMI-8226 leukemia cell line. In words: cells. Conditions: Homo sapiens, RPMI-8226, 48 h, read-out: % inhibition RPMI-8226.
The test system of the next assay is HL-60 leukemia cell line. In words: cells. The following applies: Homo sapiens, HL-60, 48 h, read-out: % inhibition HL-60.
In assay [2] the test system is MOLT-4 leukemia cell line. Kind of assay: cells. Conditions: Homo sapiens, MOLT-4, 48 h, read-out: % inhibition MOLT-4.
In assay [3] the test system is CCRF-CEM leukemia cell line. Kind of assay: cells. Conditions: Homo sapiens, 48 h, read-out: % inhibition CCRF-CEM.
The subject of another assay is K562 leukemia cell line. The following applies: 10 μM compound, 48 h treatment, CellTiter-Blue.

For `C[C@H]1[C@H](OC(=O)CCC(=O)O)O[C@@H]2O[C@@]3(C)CC[C@H]4[C@H](C)CC[C@@H]1[C@@]24OO3` [artesunic acid, Artesunic acid], the inhibition at 10 µM in assay [1] is 27.3 ± 6.1%; with HL-60 leukemia cell line, 44.3 ± 7.4%; in assay [2], 9.9 ± 4.8%; in assay [3], 9.4 ± 4%.

Regarding `COc1cccc2c1C(=O)c1c(O)c3c(c(O)c1C2=O)C[C@@](O)(C(=O)CO)C[C@@H]3O[C@H]1C[C@H](N)[C@H](O)[C@H](C)O1` [doxorubicin], the inhibition at 10 µM amounted to 84.1 ± 3.2% in assay [1], 91.5 ± 0.6% with HL-60 leukemia cell line, 93.2 ± 2.6% in assay [2] and 92.3 ± 1.3% in assay [3]. The “% inhibition K562” value in the assay with K562 leukemia cell line stood at 78.2±4.1%.
